Target: T1, Receptor-interacting serine/threonine-protein kinase 1 (Homo sapiens, UniProt Q13546)
T1 sequence (Q13546 whole entry): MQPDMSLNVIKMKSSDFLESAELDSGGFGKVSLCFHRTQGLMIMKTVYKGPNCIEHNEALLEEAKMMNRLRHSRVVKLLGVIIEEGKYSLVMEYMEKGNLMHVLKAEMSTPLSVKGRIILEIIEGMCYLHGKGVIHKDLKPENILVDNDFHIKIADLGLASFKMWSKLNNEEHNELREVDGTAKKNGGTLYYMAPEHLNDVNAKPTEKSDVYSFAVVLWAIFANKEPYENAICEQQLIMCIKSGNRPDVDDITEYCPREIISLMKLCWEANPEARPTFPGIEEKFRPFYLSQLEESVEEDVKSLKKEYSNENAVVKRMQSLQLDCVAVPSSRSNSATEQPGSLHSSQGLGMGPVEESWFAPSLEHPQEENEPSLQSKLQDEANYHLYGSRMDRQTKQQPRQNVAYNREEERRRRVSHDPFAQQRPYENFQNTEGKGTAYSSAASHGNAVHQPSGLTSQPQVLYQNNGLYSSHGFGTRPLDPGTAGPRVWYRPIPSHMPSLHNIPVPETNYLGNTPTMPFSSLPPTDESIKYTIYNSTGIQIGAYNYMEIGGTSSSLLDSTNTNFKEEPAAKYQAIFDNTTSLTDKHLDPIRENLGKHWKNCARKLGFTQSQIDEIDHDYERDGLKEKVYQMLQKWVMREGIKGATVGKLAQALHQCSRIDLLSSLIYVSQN
Assay: RIPK1 Kinase Activity Assay
Experimental: ADP-Glo Kinase kit can be used to measure ADP level in kinase activity assay so as to distinguish the inhibitory effects of different compounds on RIPK1 kinase activity. The ADP-Glo assay was usually divided into three steps. Firstly, the kinase converted ATP to ADP and phosphorylated the substrate at the same time; secondly, ATP digestion reagent was added to degrade all ATP in the reaction system; finally, a detection reagent was added to reduce ADP to ATP, and energy from ATP was transferred to […] which thus emitting a chemical luminescence that can be detected. Assay procedure can refer to manufacture's technical manual.(2) Reagent Preparation:1.33× kinase buffer: 5× kinase buffer stock (250 mM of NaCl, 150 mM of MgCl2, 2.5 mg/ml BSA (bovine serum albumin), 0.1% CHAPS (3-[(3-cholamidopropyl)-dimethyl-ammonio]-1-propane sulfonate), and 5 mM of dithiothreitol) was diluted with water to 1.33× kinase buffer;RIPK1 enzyme solution: the kinase was dissolved in 1.33× kinase buffer to make 40 nM as the final working concentration;ATP solution: 10 mM ATP stock solution in water was dissolved in 1.33× kinase buffer to make 10 μM as the final working concentration;4× compound preparation: the compound was diluted in a 3-fold gradient, and finally 4% DMSO aqueous solution containing different concentrations of the compound was obtained. […]

Which IC50 does the source give for `CC(C)n1cncc(-c2ccc(C3(NC(=O)c4nnc(Cc5ccccc5)[nH]4)CC3)cc2)c1=O` [US20240002388, Compound 14] here?
The IC50 was 18 nM.

From BindingDB's records for patent US20240002388 (Hutchison Medipharma, 2024)
